Measured values taken from patent publication US10287617B2, “Methods for in vitro—in vivo efficacy determination” (COLORADO STATE UNIVERSITY RESEARCH FOUNDATION, priority 2014, dated 2019).
Several values for one entry are separate records, joined by “and”; a condition that tells them apart may be missing. Equal values may be shown once.

Tests used:
M. tuberculosis H37Rv [1] = assay type: cell-based; settings: SB-P17G-A20 with rifampicin
M. tuberculosis H37Rv [2] = assay type: cell-based, Mycobacterium tuberculosis; settings: 2×10^9 cells plated on 1.6 μg/mL (10 times MIC)
M. tuberculosis Erdman = assay type: in vivo; settings: SB-P17G-A20 50 mg/kg IP bid, INH 20 mg/kg IP qd, days 5 to 14 post-infection

Compound	enhancement of activity in the presence of the other drug (M. tuberculosis H37Rv [1])	ΣFIC (M. tuberculosis H37Rv [1])	spontaneous resistant mutants (M. tuberculosis H37Rv [2])	reduction in bacterial load in the lungs (M. tuberculosis Erdman)	reduction in bacterial load in the spleen (M. tuberculosis Erdman)
CN(C)c1cc2nc(C3CCCCC3)[nH]c2cc1NC(=O)c1ccc(OC(F)(F)F)cc1 [SB-P17G-A20]	2-4 fold	0.75	No mutants where observed	1.73±0.24 log10 CFU and 1.73 log10 CFU	2.68 log10 CFU and 2.68±0.48 log10 CFU
CCCCOC(=O)Nc1cc2nc(C3CCCCC3)[nH]c2cc1N(C)C [SB-P17G-C2]				no significant reduction	no significant reduction
NNC(=O)c1ccncc1 [Isoniazid, reference compound]				below the level of detection	below the level of detection
